Reference: ChEMBL document CHEMBL3885881, “DrugMatrix”

Organism: Rattus norvegicus
Test: DrugMatrix - Regimen: Daily Repeat
Format: toxicity, organism-based, Sprague-Dawley
Design: regimen Daily Repeat, gender Male, age 6-8 weeks
Details: in vivo, po, route oral GAVAGE, vehicle .5 % CMC; for BASOPHIL / EOSINOPHIL / ERYTHROCYTE COUNT / HEMATOCRIT / HEMOGLOBIN / LYMPHOCYTE / MEAN CORPUSCULAR HEMOGLOBIN / MEAN CORPUSCULAR HEMOGLOBIN CONCENTRATION / MEAN CORPUSCULAR VOLUME / MONOCYTE / NEUTROPHIL / PLATELET COUNT: tissue Blood; for ALANINE AMINOTRANSFERASE / ALBUMIN / ALKALINE PHOSPHATASE / ASPARTATE AMINOTRANSFERASE / BLOOD UREA NITROGEN / CHOLESTEROL / CREATINE PHOSPHOKINASE / CREATININE / GLUCOSE / PHOSPHORUS / POTASSIUM / SODIUM / TOTAL BILIRUBIN / TOTAL PROTEIN: tissue Plasma
[1] = 0 mg/kg, 72 h, dose level Control, time 3 day
[2] = 0 mg/kg, 120 h, dose level Control, time 5 day
[3] = 20 mg/kg, 72 h, dose level Low, time 3 day
[4] = 20 mg/kg, 120 h, dose level Low, time 5 day

With CN(C)CCC=C1c2ccccc2COc2ccccc21 [DOXEPIN] the BASOPHIL [1] was 0%, the EOSINOPHIL [1] was 0.33% and the “ERYTHROCYTE COUNT” value [1] was 6.2 x10E6/uL. It also gave an HEMATOCRIT [1] of 38.08%, an HEMOGLOBIN [1] of 14.92 G/DL and an LYMPHOCYTE [1] of 76%. For the same molecule, the “MEAN CORPUSCULAR HEMOGLOBIN” value [1] was 24.1 pg, the “MEAN CORPUSCULAR HEMOGLOBIN CONCENTRATION” value [1] was 39.17 G/DL and the “MEAN CORPUSCULAR VOLUME” value [1] was 61.48 fL. The MONOCYTE [1] was 3.83%, the NEUTROPHIL [1] was 19.83% and the “PLATELET COUNT” value [1] was 1327.5 x10E3/uL. For the same molecule, the “ALANINE AMINOTRANSFERASE” value [1] was 40.17 u/L, the ALBUMIN [1] was 4.07 G/DL and the “ALKALINE PHOSPHATASE” value [1] was 372 u/L. The “ASPARTATE AMINOTRANSFERASE” value [1] was 67.17 u/L, the “BLOOD UREA NITROGEN” value [1] was 18.83 mg/dL and the CHOLESTEROL [1] was 78.17 mg/dL. The “CREATINE PHOSPHOKINASE” value [1] was 149.17 u/L, the CREATININE [1] was 0.57 mg/dL and the GLUCOSE [1] was 185.17 mg/dL. For the same molecule, the PHOSPHORUS [1] was 11.43 mg/dL, the POTASSIUM [1] was 6.78 MEQ/L and the SODIUM [1] was 152.83 MEQ/L. For the same molecule, the “TOTAL BILIRUBIN” value [1] was 0.4 mg/dL, the “TOTAL PROTEIN” value [1] was 6.87 G/DL and the BASOPHIL [2] was 0%. The EOSINOPHIL [2] was 0%, the “ERYTHROCYTE COUNT” value [2] was 6.05 x10E6/uL and the HEMATOCRIT [2] was 36.55%. For the same molecule, the HEMOGLOBIN [2] was 14.7 G/DL, the LYMPHOCYTE [2] was 86.83% and the “MEAN CORPUSCULAR HEMOGLOBIN” value [2] was 24.37 pg. For the same molecule, the “MEAN CORPUSCULAR HEMOGLOBIN CONCENTRATION” value [2] was 40.32 G/DL, the “MEAN CORPUSCULAR VOLUME” value [2] was 60.47 fL and the MONOCYTE [2] was 0.83%. For the same molecule, the NEUTROPHIL [2] was 12.33%, the “PLATELET COUNT” value [2] was 1177 x10E3/uL and the “ALANINE AMINOTRANSFERASE” value [2] was 41.83 u/L. The ALBUMIN [2] was 3.75 G/DL, the “ALKALINE PHOSPHATASE” value [2] was 377.5 u/L and the “ASPARTATE AMINOTRANSFERASE” value [2] was 60.83 u/L. For the same molecule, the “BLOOD UREA NITROGEN” value [2] was 16 mg/dL, the CHOLESTEROL [2] was 67.83 mg/dL and the “CREATINE PHOSPHOKINASE” value [2] was 120.33 u/L. The CREATININE [2] was 0.6 mg/dL, the GLUCOSE [2] was 167.67 mg/dL and the PHOSPHORUS [2] was 10.03 mg/dL. For the same molecule, the POTASSIUM [2] was 6.68 MEQ/L, the SODIUM [2] was 150.5 MEQ/L and the “TOTAL BILIRUBIN” value [2] was 0.57 mg/dL. The “TOTAL PROTEIN” value [2] was 6.25 G/DL, the BASOPHIL [3] was 0% and the EOSINOPHIL [3] was 0%. The “ERYTHROCYTE COUNT” value [3] was 5.9 x10E6/uL, the HEMATOCRIT [3] was 36.4% and the HEMOGLOBIN [3] was 14.15 G/DL. For the same molecule, the LYMPHOCYTE [3] was 83%, the “MEAN CORPUSCULAR HEMOGLOBIN” value [3] was 24 pg and the “MEAN CORPUSCULAR HEMOGLOBIN CONCENTRATION” value [3] was 38.9 G/DL. For the same molecule, the “MEAN CORPUSCULAR VOLUME” value [3] was 61.75 fL, the MONOCYTE [3] was 0% and the NEUTROPHIL [3] was 17%. The “PLATELET COUNT” value [3] was 1287.5 x10E3/uL, the “ALANINE AMINOTRANSFERASE” value [3] was 38.33 u/L and the ALBUMIN [3] was 3.6 G/DL. The “ALKALINE PHOSPHATASE” value [3] was 352.33 u/L, the “ASPARTATE AMINOTRANSFERASE” value [3] was 56.67 u/L and the “BLOOD UREA NITROGEN” value [3] was 11.67 mg/dL. For the same molecule, the CHOLESTEROL [3] was 72.67 mg/dL, the “CREATINE PHOSPHOKINASE” value [3] was 139.33 u/L and the CREATININE [3] was 0.53 mg/dL. It also gave a GLUCOSE [3] of 179.67 mg/dL, a PHOSPHORUS [3] of 11.8 mg/dL and a POTASSIUM [3] of 6.33 MEQ/L. The SODIUM [3] was 150 MEQ/L, the “TOTAL BILIRUBIN” value [3] was 0.2 mg/dL and the “TOTAL PROTEIN” value [3] was 5.83 G/DL. The BASOPHIL [4] was 0%, the EOSINOPHIL [4] was 0% and the “ERYTHROCYTE COUNT” value [4] was 6.16 x10E6/uL. It also gave an HEMATOCRIT [4] of 37.07%, an HEMOGLOBIN [4] of 14.67 G/DL and an LYMPHOCYTE [4] of 91.67%. The “MEAN CORPUSCULAR HEMOGLOBIN” value [4] was 23.87 pg, the “MEAN CORPUSCULAR HEMOGLOBIN CONCENTRATION” value [4] was 39.57 G/DL and the “MEAN CORPUSCULAR VOLUME” value [4] was 60.23 fL. For the same molecule, the MONOCYTE [4] was 0.33%, the NEUTROPHIL [4] was 8% and the “PLATELET COUNT” value [4] was 1231.33 x10E3/uL. The “ALANINE AMINOTRANSFERASE” value [4] was 36 u/L, the ALBUMIN [4] was 3.67 G/DL and the “ALKALINE PHOSPHATASE” value [4] was 311.33 u/L. The “ASPARTATE AMINOTRANSFERASE” value [4] was 55.67 u/L, the “BLOOD UREA NITROGEN” value [4] was 12.67 mg/dL and the CHOLESTEROL [4] was 71.33 mg/dL. The “CREATINE PHOSPHOKINASE” value [4] was 153 u/L, the CREATININE [4] was 0.6 mg/dL and the GLUCOSE [4] was 161.33 mg/dL. It also gave a PHOSPHORUS [4] of 12.47 mg/dL, a POTASSIUM [4] of 6.8 MEQ/L and an SODIUM [4] of 151.67 MEQ/L. For the same molecule, the “TOTAL BILIRUBIN” value [4] was 0.43 mg/dL and the “TOTAL PROTEIN” value [4] was 6.17 G/DL.
